Measured values from US9616046B2, “Hepatocyte-proliferating agent” (JAPAN BIO PRODUCTS CO., LTD., priority 2013, dated 2017).

System: rat normal hepatocytes
Assay: Intracellular signaling pathway analysis using kinase inhibitors (DNA synthesis activity, BrdU ELISA)
Assay type: cell-based
Settings: PARI-S001 (pyroglutamic acid 10 mM) plus inhibitor; PD98059, SB203580, LY294002 6.3-50 μM, rapamycin 1.6-12.5 ng/mL; 0.5% DMSO; 22 hours
Protocol: The intracellular signaling pathway analysis was carried out in order to clarify through which intracellular signaling pathway the PARI-S001 promoted cell proliferation activity. PARI-S001 and various kinase inhibitors were used to measure the cell proliferation activity. The measurement method used was the same method as that in the above-described <Normal Cell Proliferation Test>. The rat normal hepatocytes were cultured for 3 hours after seeding, followed by replacement with the medium to which […] (pyroglutamic acid concentration: 10 mM) and each kinase inhibitor were simultaneously added. The concentration of rapamycin (an inhibitor of mTOR) was adjusted to a final concentration of 1.6 ng/mL, 3.1 ng/mL, 6.3 ng/mL, or 12.5 ng/mL. The concentration of PD98059 (an inhibitor of MEK1 and MEK2), SB203580 (an inhibitor of p38 of MAPK), and LY294002 (an inhibitor of PI3K) was adjusted to a final concentration of 6.3 μM, 12.5 μM, 25 μM, or 50 μM. To promote the dissolution of each kinase inhibitor, dimethyl sulfoxide (hereinafter abbreviated as “DMSO”) was added to a final concentration of 0.5% to the medium. Similarly, DMSO was added to a final concentration of 0.5% to the control. Culture was further carried out for 22 hours after medium replacement, followed by evaluating DNA synthesis activity using a Cell Proliferation ELISA BrdU (colorimetric) Kit (Roche Co., Ltd.).

## COc1cccc(-c2cc(=O)c3ccccc3o2)c1N [PD98059]
  DNA synthesis activity in rat normal hepatocytes on simultaneous addition of PARI-S001 and kinase inhibitor: suppress DNA synthesis activity in the rat normal hepatocytes depending on the concentration of the inhibitor
